Measured values: the supplement of paper PMC8960247
Where a name gives a salt, the structure may show the parent alone. ± gives the standard error.

Assays:
621-103 (TSC2-rescued) = assay: relative viability vs DMSO; higher = less cytotoxic; settings: serum: 10% FBS, 72 h
621-102 (TSC2-deficient) [1] = assay: as above; settings: serum: 10% FBS, 72 h
621-102 (TSC2-deficient) [2] = assay: relative viability vs DMSO (fraction); higher = less cytotoxic; settings: serum: 0.1% FBS, 72 h
UMB1949 (TSC2-deficient) = assay: as above; settings: serum: 0.1% FBS, 72 h;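 note: renal angiomyolipoma cell lines screened in 384-well plates, viability normalized per plate to DMSO-treated cells, each plate carrying 50 nM rapamycin and 1 µM staurosporine controls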

Row | SMILES | relative viability (621-103 (TSC2-rescued); 0.0001 µM) [%] | relative viability (621-103 (TSC2-rescued); 0.001 µM) [%] | relative viability (621-103 (TSC2-rescued); 0.01 µM) [%] | relative viability (621-103 (TSC2-rescued); 0.1 µM) [%] | relative viability (621-103 (TSC2-rescued); 1 µM) [%] | relative viability (621-103 (TSC2-rescued); 10 µM) [%] | relative viability (621-102 (TSC2-deficient) [1]; 0.0001 µM) [%] | relative viability (621-102 (TSC2-deficient) [1]; 0.001 µM) [%] | relative viability (621-102 (TSC2-deficient) [1]; 0.01 µM) [%] | relative viability (621-102 (TSC2-deficient) [1]; 0.1 µM) [%] | relative viability (621-102 (TSC2-deficient) [1]; 1 µM) [%] | relative viability (621-102 (TSC2-deficient) [1]; 10 µM) [%] | relative viability (621-102 (TSC2-deficient) [2]; 0.0128 nM) | relative viability (621-102 (TSC2-deficient) [2]; 0.064 nM) | relative viability (621-102 (TSC2-deficient) [2]; 0.32 nM) | relative viability (621-102 (TSC2-deficient) [2]; 1.6 nM) | relative viability (621-102 (TSC2-deficient) [2]; 8 nM) | relative viability (621-102 (TSC2-deficient) [2]; 40 nM) | relative viability (621-102 (TSC2-deficient) [2]; 200 nM) | relative viability (621-102 (TSC2-deficient) [2]; 1000 nM) | relative viability (621-102 (TSC2-deficient) [2]; 5000 nM) | relative viability (UMB1949 (TSC2-deficient); 0.0128 nM) | relative viability (UMB1949 (TSC2-deficient); 0.064 nM) | relative viability (UMB1949 (TSC2-deficient); 0.32 nM) | relative viability (UMB1949 (TSC2-deficient); 1.6 nM) | relative viability (UMB1949 (TSC2-deficient); 8 nM) | relative viability (UMB1949 (TSC2-deficient); 40 nM) | relative viability (UMB1949 (TSC2-deficient); 200 nM) | relative viability (UMB1949 (TSC2-deficient); 1000 nM) | relative viability (UMB1949 (TSC2-deficient); 5000 nM)
1 | CC1(C)CC(=O)c2c(C(F)(F)F)nn(-c3ccc(C(N)=O)c(N[C@H]4CC[C@H](O)CC4)c3)c2C1 [SNX-2112] | 112 ± 4 | 111 ± 1.2 | 84.4 ± 1.3 | 7.98 ± 0.57 | 6.9 ± 0.43 | 6.78 ± 0.53 | 60.2 ± 9.5 | 66.4 ± 8.2 | 45.4 ± 5.8 | 21.9 ± 0.44 | 18.9 ± 2.6 | 14.8 ± 0.6 | 0.829 | 0.471 | 0.381 | 0.19 | 0.232 | 0.0887 | 0.0644 | 0.0224 | 0.0194 | 0.771 | 0.292 | 0.334 | 0.0113 | 0.00964 | 0.00549 | 0.00248 | 0.00255 | 0.00394
2 | C=C1C[C@@H]2[C@H](CC[C@]3(C)C(=O)CC[C@@H]23)[C@@]2(C)C=CC(=O)C=C12 [Exemestane] | 100.1 ± 0.24 | 101 ± 2.2 | 104 ± 1.6 | 100 ± 1.2 | 97.5 ± 1.4 | 92.3 ± 2.7 | 130 ± 2.1 | 122 ± 5.8 | 119 ± 1.2 | 114 ± 3.2 | 113 ± 5.9 | 105 ± 3.4 | 1.16 | 1.08 | 1.02 | 0.948 | 1.06 | 1.11 | 1.12 | 0.94 | 0.891 | 0.936 | 0.98 | 0.996 | 1.01 | 1.08 | 1.02 | 0.927 | 0.859 | 0.773
3 | COC1=CC(c2cc3ccccc3[nH]2)=N/C1=C\c1[nH]c(C)cc1C [Obatoclax Mesylate] | 102.9 ± 0.9 | 99.7 ± 1.6 | 96.8 ± 0.97 | 68.9 ± 2 | 28.8 ± 0.29 | 5.57 ± 0.73 | 116.6 ± 0.46 | 115 ± 5.2 | 101.8 ± 0.93 | 54 ± 2.3 | 16.9 ± 0.25 | 5.18 ± 0.8 | 1.24 | 0.96 | 1.05 | 1.17 | 1.06 | 0.847 | 0.128 | 0.00422 | 0.00238 | 1.1 | 1.01 | 1.06 | 1.08 | 1 | 0.616 | 0.0115 | 0.00837 | 0.0101
4 | CO[C@H]1C[C@@H]2CC[C@@H](C)[C@@](O)(O2)C(=O)C(=O)N2CCCC[C@H]2C(=O)O[C@H]([C@H](C)C[C@@H]2CC[C@@H](OC(=O)C(C)(CO)CO)[C@H](OC)C2)CC(=O)[C@H](C)/C=C(\C)[C@@H](O)[C@@H](OC)C(=O)[C@H](C)C[C@H](C)/C=C/C=C/C=C/1C [Temsirolimus] | 84.1 ± 1.2 | 75.1 ± 3.1 | 78.7 ± 1.2 | 83.1 ± 3.1 | 76.9 ± 5 | 67.44 ± 0.43 | 40.82 ± 0.13 | 40.9 ± 3.7 | 36.1 ± 3.5 | 36.5 ± 3.5 | 41.1 ± 4.7 | 40.6 ± 4.3 | 0.696 | 0.68 | 0.714 | 0.666 | 0.524 | 0.422 | 0.263 | 0.274 | 0.171 | 0.901 | 0.874 | 0.846 | 0.894 | 0.91 | 0.816 | 0.629 | 0.415 | 0.379
5 | Cn1c(Nc2ccc(C(F)(F)F)cc2)nc2cc(Oc3ccnc(-c4ncc(C(F)(F)F)[nH]4)c3)ccc21 [RAF265] | 99.71 ± 0.95 | 102 ± 2.3 | 100.7 ± 0.72 | 92.7 ± 2.6 | 78.2 ± 2.2 | 64.1 ± 0.7 | 111 ± 3.9 | 107 ± 4.3 | 101 ± 2.5 | 92.9 ± 1.1 | 60.4 ± 1.5 | 41.5 ± 2 | 1.01 | 1.13 | 1.04 | 1.07 | 0.927 | 0.488 | 0.0802 | 0.0481 | 0.00102 | 1.1 | 1.02 | 1.13 | 1.06 | 1.19 | 1.11 | 0.216 | 0.00279 | 0.00183
6 | Cn1cc(CNCC2CCN(c3ncc(C(=O)NO)cn3)CC2)c2ccccc21 | 91.4 ± 0.56 | 78.47 ± 0.52 | 44.98 ± 0.16 | 3.52 ± 0.045 | 2.06 ± 0.065 | 1.27 ± 0.15 | 95.9 ± 2.5 | 86.5 ± 1.7 | 59.3 ± 0.89 | 36.84 ± 0.15 | 25.2 ± 0.97 | 18.08 ± 0.036 | 1.02 | 0.835 | 0.708 | 0.585 | 0.288 | 0.0238 | 0.00256 | 0.000673 | 0.000759 | 1.08 | 0.949 | 0.9 | 0.687 | 0.00555 | 0.00221 | 0.0013 | 0.000408 | 0.000355
7 | CCOc1ccn(-c2ccc(F)cc2)c(=O)c1C(=O)Nc1ccc(Oc2ccnc(N)c2Cl)c(F)c1 | 88.1 ± 3.7 | 93.98 ± 0.29 | 98.93 ± 0.32 | 99.4 ± 1.1 | 97.6 ± 3.9 | 90.8 ± 4.7 | 106 ± 3.3 | 101.7 ± 0.87 | 103 ± 2.8 | 104.97 ± 0.1 | 100 ± 1.6 | 97.17 ± 0.96 | 1.04 | 0.924 | 0.972 | 0.852 | 0.854 | 0.991 | 0.877 | 0.756 | 0.0351 | 0.977 | 1.06 | 0.983 | 1.01 | 0.867 | 1.03 | 1.02 | 0.984 | 0.0304
8 | O=C1Nc2ccccc2/C1=C1/Nc2ccccc2C1=O [Indirubin] | 86.1 ± 1.6 | 82.2 ± 3.9 | 83.7 ± 2.7 | 81.9 ± 4 | 79.1 ± 3.3 | 64 ± 2.4 | 97.2 ± 1.8 | 92.9 ± 2 | 91.53 ± 0.38 | 87.8 ± 2.7 | 92.2 ± 1.6 | 89.5 ± 2.1 | 1.08 | 0.927 | 1.06 | 0.906 | 0.922 | 0.996 | 0.841 | 0.652 | 0.833 | 0.983 | 1.03 | 1.02 | 0.972 | 0.941 | 0.964 | 0.87 | 0.811 | 0.749
9 | Cc1ccc(C(=O)Nc2cccc(C(F)(F)F)c2)cc1Nc1nc(-c2cccnc2)nc2c1cnn2C [NVP-BHG712] | 105 ± 1.7 | 104.74 ± 0.059 | 102 ± 1.1 | 95.4 ± 2.5 | 78.2 ± 1.3 | 17.4 ± 1.2 | 108 ± 1.1 | 108 ± 0.36 | 107 ± 2.5 | 102 ± 2.6 | 99.4 ± 2 | 33.9 ± 4 | 1.3 | 1.15 | 1.19 | 1.1 | 1.24 | 1.37 | 0.67 | 0.135 | 0.011 | 1.21 | 1.1 | 1.09 | 1.12 | 1.12 | 1.14 | 0.95 | 0.301 | 0.0076
